# Earlier results as cited in patent publication US20260295054A1, “GLUCAGON-LIKE PEPTIDE-1 RECEPTOR AGONIST VARIANTS AND METHODS THEREOF” (Neuraly, Inc., priority 2023, published 2026).
# Where two headings read alike, the source gives them in different places.
# Experiments:
# [1] = tested on: type 2 diabetic subjects; conditions: for HbA1c reduction from baseline: week 16
# [2] = humans
substance,measurement,setting,value
albiglutide,HbA1c reduction from baseline,[1]; 30 mg weekly,0.87%
same,HbA1c reduction from baseline,[1]; 50 mg biweekly,0.79%
same,HbA1c reduction from baseline,[1]; 100 mg monthly,0.87%
same,albiglutide concentrations between monthly doses,[1]; monthly dosing,fall essentially to zero between monthly doses
same,fasting blood glucose control,[1]; monthly dosing,substantial loss in fasting blood glucose control
same,nausea and vomiting on dosing days,[1]; monthly vs weekly dosing,significantly greater incidence of nausea and vomiting
same,serum half-life,[2],~ 5 days
